According to ChEMBL document CHEMBL1157597, “Exploring a synthetic organoselenium compound for antioxidant pharmacotherapy--toxicity and effects on ROS-production” (Bioorg Med Chem, 2010):
Calls of active or inactive are those of the source. The rule behind the calls is not given here.

Columns and labels:
[1] = Antioxidant activity against ABTS radicals assessed as trolox equivalents in phosphate buffer of pH 7.4 at 6.08 uM by ABTS assay; assay type: functional
[2] = Cytotoxicity against human MG63 cells assessed as decrease in proliferation up to 200 uM after 7 days by alamar blue assay; assay type: cell-based; details: mg-63, 168 h
[3] = tested on: HEK293; test: Cytotoxicity against HEK293 cells assessed as decrease in proliferation up to 200 uM after 7 days by alamar blue assay; assay type: cell-based; details: human, hek293, 168 h
[4] = tested on: SH-SY5Y; test: Cytotoxicity against human SH-SY5Y cells assessed as decrease in proliferation up to 200 uM after 7 days by alamar blue assay; assay type: cell-based; details: 168 h
[5] = tested on: MRC5; test: Cytotoxicity against human MRC5 cells assessed as decrease in proliferation up to 200 uM after 7 days by alamar blue assay; assay type: cell-based; details: mrc5, 168 h
[6] = tested on: Caco-2; test: Cytotoxicity against human Caco-2 cells assessed as decrease in proliferation up to 200 uM after 7 days by alamar blue assay; assay type: cell-based; details: caco-2, 168 h
[7] = Cytotoxicity against human MG63 cells assessed as cell death at 60 uM after 7 days by LDH assay; assay type: cell-based; details: mg-63, 168 h
[8] = tested on: HEK293; test: Cytotoxicity against HEK293 cells assessed as cell death at 60 uM after 7 days by LDH assay; assay type: cell-based; details: human, hek293, 168 h
[9] = tested on: SH-SY5Y; test: Cytotoxicity against human SH-SY5Y cells assessed as cell death at 60 uM after 7 days by LDH assay; assay type: cell-based; details: 168 h
[10] = tested on: MRC5; test: Cytotoxicity against human MRC5 cells assessed as cell death at 60 uM after 7 days by LDH assay; assay type: cell-based; details: mrc5, 168 h
[11] = tested on: Caco-2; test: Cytotoxicity against human Caco-2 cells assessed as cell death at 60 uM after 7 days by LDH assay; assay type: cell-based; details: caco-2, 168 h
[12] = Cytotoxicity against human MG63 cells assessed as plasma membrane damage at 60 uM after 7 days by LDH assay; assay type: cell-based; details: mg-63, 168 h
[13] = tested on: HEK293; test: Cytotoxicity against HEK293 cells assessed as plasma membrane damage at 60 uM after 7 days by LDH assay; assay type: cell-based; details: human, hek293, 168 h
[14] = tested on: SH-SY5Y; test: Cytotoxicity against human SH-SY5Y cells assessed as plasma membrane damage at 60 uM after 7 days by LDH assay; assay type: cell-based; details: 168 h
[15] = tested on: MRC5; test: Cytotoxicity against human MRC5 cells assessed as plasma membrane damage at 60 uM after 7 days by LDH assay; assay type: cell-based; details: mrc5, 168 h
[16] = tested on: Caco-2; test: Cytotoxicity against human Caco-2 cells assessed as plasma membrane damage at 60 uM after 7 days by LDH assay; assay type: cell-based; details: caco-2, 168 h
[17] = (§1) Antioxidant activity against ROS-production in human neutrophils by chemiluminescence; assay type: functional, cell-based; details: Neutrophil
[18] = tested on: Neutrophil; test: as §1; assay type: functional, cell-based
[19] = tested on: THP-1; test: Antioxidant activity against ROS-production in PMA-stimulated human THP1 cells by chemiluminescence; assay type: cell-based

For `CC1Cc2cc(O)ccc2[Se]1` (stereo unspecified), the Activity [1] was “Active”, the Activity [2] was “Non-toxic” and the Activity [3] was “Non-toxic”. The Activity [4] was “Non-toxic”, the Activity [5] was “Non-toxic” and the Activity [6] was “Non-toxic”. For the same molecule, the Activity [7] was “Non-toxic”, the Activity [8] was “Non-toxic” and the Activity [9] was “Non-toxic”. The Activity [10] was “Non-toxic”, the Activity [11] was “Non-toxic” and the Activity [12] was “Non-toxic”. For the same molecule, the Activity [13] was “Non-toxic”, the Activity [14] was “Non-toxic” and the Activity [15] was “Non-toxic”. The Activity [16] was “Non-toxic”, the IC50 [17] was 1000 nM and the Activity [18] was “Dose-dependent effect”. For the same molecule, the Activity [19] was “Dose-dependent effect”.
In the case of `O=C1O[C@H]([C@@H](O)CO)C([O-])=C1O.[Na+]`, the Activity [1] is reported as “Active”.
For `Cc1c(C)c2c(c(C)c1O)CCC(C)(C(=O)O)O2` (stereo unspecified) [TROLOX], the Activity [7] was “Non-toxic”, the Activity [8] was “Non-toxic” and the Activity [9] was “Non-toxic”. For the same molecule, the Activity [10] was “Non-toxic”, the Activity [11] was “Non-toxic” and the Activity [12] was “Non-toxic”. The Activity [13] was “Non-toxic”, the Activity [14] was “Non-toxic” and the Activity [15] was “Non-toxic”. For the same molecule, the Activity [16] was “Non-toxic”.
`CC(=O)N[C@@H](CS)C(=O)O` gave an Activity [1] of 2.4.
